Source: patent US6737383B1, “Herbicidal oxadiazolidines” (priority 1999, dated 2004)

Assays:
bedstraw = test: Test B pre/postemergence bedstraw; format: in vivo, Galium aparine
In short: (§1)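 Test chemicals in a non-phytotoxic solvent mixture with surfactant were sprayed preemergence onto planted seeds and postemergence onto plants 2 to 18 cm tall (1- to 4-leaf stage). After twelve to sixteen days in a greenhouse, injury was visually rated against untreated controls from 0 (no effect) to 10 (complete control).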

surinam grass = test: Test B pre/postemergence surinam grass; format: in vivo, Brachiaria decumbens
In short: as §1

cocklebur = test: Test B pre/postemergence cocklebur; format: in vivo, Xanthium strumarium
In short: as §1

corn = test: Test B pre/postemergence corn; format: in vivo, Zea mays
In short: as §1

crabgrass = test: Test B pre/postemergence crabgrass; format: in vivo, Digitaria sanguinalis
In short: as §1

morningglory = test: Test B pre/postemergence morningglory; format: in vivo, Ipomoea hederacea
In short: as §1

pigweed = test: Test B pre/postemergence pigweed; format: in vivo, Amaranthus retroflexus
In short: as §1

rape = test: Test B pre/postemergence rape; format: in vivo, Brassica napus
In short: as §1

soybean = test: Test B pre/postemergence soybean; format: in vivo, Glycine max
In short: as §1

sugar beet = test: Test B pre/postemergence sugar beet; format: in vivo, Beta vulgaris
In short: as §1

velvetleaf = test: Test B pre/postemergence velvetleaf; format: in vivo, Abutilon theophrasti
In short: as §1

wild oat = test: Test B pre/postemergence wild oat; format: in vivo, Avena fatua
In short: as §1

rice = test: Test B flood test rice; format: in vivo, Oryza sativa
In short: (§2)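 Read-out is a visual response score from 0 (no effect) to 10 (complete control), assigned by comparison with untreated controls. Treatment was applied at the 2-leaf stage, and plants stayed in the greenhouse for twelve to sixteen days before scoring.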

smallflower flatsedge = test: Test B flood test smallflower flatsedge; format: in vivo, Cyperus difformis
In short: as §2

duck salad = test: Test B flood test duck salad; format: in vivo, Heteranthera limosa
In short: as §2

bamyardgrass = test: Test B flood test barnyardgrass; format: in vivo, Echinochloa crus-galli
In short: as §2

[1] = Postemergence, Rate 62 g/ha, scale of 0 to 10, 0 is no effect, 10 is complete control
[2] = Preemergence, Rate 62 g/ha, scale 0 to 10 (0 no effect, 10 complete control)
[3] = Preemergence, Rate 125 g/ha, scale 0 to 10, 0 is no effect, 10 is complete control
[4] = Preemergence, Rate 500 g/ha, scale of 0 to 10 where 0 is no effect and 10 is complete control
[5] = Rate 250 g/ha, Postemergence, scale of 0 to 10 where 0 is no effect and 10 is complete control
[6] = Postemergence, Rate 125 g/ha, scale 0 to 10, 0 is no effect, 10 is complete control
[7] = Postemergence, Rate 500 g/ha, scale of 0 to 10 where 0 is no effect and 10 is complete control
[8] = Rate 62 g/ha, flood test species, Pre-emergence, visual evaluation after twelve to sixteen days
[9] = Rate 125 g/ha, under heading Pre-emergence, flood test species, visual evaluation after twelve to sixteen days
[10] = Rate 250 g/ha, Pre-emergence (flood test species), scale 0 to 10, 0 is no effect, 10 is complete control
[11] = Rate 500 g/ha, Pre-emergence section of Table B, 0 to 10 scale (0 no effect, 10 complete control)

CC(C)N(C(=O)n1oc(=O)n(CCC2OCCO2)c1=O)c1ccccc1 [Compound 560]
2: Plant response rating, Corn (corn; [5]) | Redroot pigweed plant response rating (pigweed; [1]) | Soybean plant response rating (soybean; [1]) | Plant response rating, Soybean (soybean; [5]) | Velvetleaf plant response rating (velvetleaf; [3]) | Velvetleaf plant response rating (0 to 10 scale) (velvetleaf; Preemergence, Rate 250 g/ha) | Plant response rating, Wild oats (wild oat; [7]) | Plant response rating, Wild oats (wild oat; [5])
6: Plant response rating, B. signalgrass (surinam grass; [5]) | Plant response rating, Sugarbeets (sugar beet; [7])
0: Bedstraw plant response rating (bedstraw; [1]) | Bedstraw plant response rating (bedstraw; [2]) | Bedstraw plant response rating (bedstraw; [3]) | Plant response rating, Bedstraw (bedstraw; [5]) | B. signalgrass plant response rating (surinam grass; [1]) | Cocklebur plant response rating (cocklebur; [1]) | Cocklebur plant response rating (cocklebur; [6]) | Plant response rating, Cocklebur (cocklebur; [7]) | Cocklebur plant response rating (cocklebur; [2]) | Cocklebur plant response rating (cocklebur; [3]) | Cocklebur plant response rating (0 to 10 scale) (cocklebur; Preemergence, Rate 250 g/ha) | Cocklebur plant response rating (cocklebur; [4]) | Plant response rating, Cocklebur (cocklebur; [5]) | Corn plant response rating (corn; [1]) | Corn plant response rating (corn; [6]) | Corn plant response rating (corn; [2]) | Corn plant response rating (corn; [3]) | Crabgrass plant response rating (crabgrass; [1]) | Morningglory plant response rating (morningglory; [2]) | Morningglory plant response rating (morningglory; [3]) | Rape plant response rating (rape; [1]) | Rape plant response rating (rape; [2]) | Soybean plant response rating (soybean; [2]) | Soybean plant response rating (soybean; [3]) | Sugarbeets plant response rating (sugar beet; [1]) | Sugarbeets plant response rating (sugar beet; [2]) | Sugarbeets plant response rating (sugar beet; [3]) | Plant response rating, Sugarbeets (sugar beet; [5]) | Velvetleaf plant response rating (velvetleaf; [1]) | Plant response rating, Velvetleaf (velvetleaf; [7]) | Velvetleaf plant response rating (velvetleaf; [2]) | Plant response rating, Velvetleaf (velvetleaf; [5]) | Wild oats plant response rating (wild oat; [1]) | Wild oats plant response rating (wild oat; [2]) | Wild oats plant response rating (wild oat; [3]) | Plant response rating, Rice (0 to 10 scale, 0 is no effect, 10 is complete control) (rice; [8]) | Rice plant response rating (0 to 10 scale, 0 is no effect, 10 is complete control) (rice; [9]) | Rice plant response rating (rice; [10]) | Rice plant response rating (rice; [11]) | Plant response rating, S. Flatsedge (0 to 10 scale, 0 is no effect, 10 is complete control) (smallflower flatsedge; [8]) | S. Flatsedge plant response rating (0 to 10 scale, 0 is no effect, 10 is complete control) (smallflower flatsedge; [9]) | S. Flatsedge plant response rating (smallflower flatsedge; [10]) | S. Flatsedge plant response rating (smallflower flatsedge; [11]) | Plant response rating, Ducksalad (0 to 10 scale, 0 is no effect, 10 is complete control) (duck salad; [8]) | Ducksalad plant response rating (0 to 10 scale, 0 is no effect, 10 is complete control) (duck salad; [9]) | Ducksalad plant response rating (duck salad; [10]) | Ducksalad plant response rating (duck salad; [11]) | Plant response rating, Barnyardgrass (0 to 10 scale, 0 is no effect, 10 is complete control) (bamyardgrass; [8]) | Barnyardgrass plant response rating (0 to 10 scale, 0 is no effect, 10 is complete control) (bamyardgrass; [9]) | Barnyardgrass plant response rating (bamyardgrass; [10]) | Barnyardgrass plant response rating (bamyardgrass; [11])
1: Soybean plant response rating (0 to 10 scale) (soybean; Preemergence, Rate 250 g/ha)
10: Crabgrass plant response rating (crabgrass; [4]) | Plant response rating, Morningglory (morningglory; [7])
8: Bedstraw plant response rating (bedstraw; [4]) | Plant response rating, Crabgrass (crabgrass; [7]) | Redroot pigweed plant response rating (pigweed; [3]) | Plant response rating, Redroot pigweed (pigweed; [5]) | Rape plant response rating (rape; [4])
9: B. signalgrass plant response rating (surinam grass; [4]) | Crabgrass plant response rating (crabgrass; [2]) | Crabgrass plant response rating (crabgrass; [3]) | Crabgrass plant response rating (0 to 10 scale) (crabgrass; Preemergence, Rate 250 g/ha) | Plant response rating, Morningglory (morningglory; [5]) | Plant response rating, Redroot pigweed (pigweed; [7]) | Redroot pigweed plant response rating (0 to 10 scale) (pigweed; Preemergence, Rate 250 g/ha) | Redroot pigweed plant response rating (pigweed; [4])
5: Bedstraw plant response rating (0 to 10 scale) (bedstraw; Preemergence, Rate 250 g/ha) | Corn plant response rating (0 to 10 scale) (corn; Preemergence, Rate 250 g/ha) | Corn plant response rating (corn; [4]) | Velvetleaf plant response rating (velvetleaf; [4]) | Wild oats plant response rating (0 to 10 scale) (wild oat; Preemergence, Rate 250 g/ha)
3: B. signalgrass plant response rating (surinam grass; [6]) | Plant response rating, Crabgrass (crabgrass; [5]) | Morningglory plant response rating (0 to 10 scale) (morningglory; Preemergence, Rate 250 g/ha) | Morningglory plant response rating (morningglory; [4]) | Redroot pigweed plant response rating (pigweed; [2]) | Rape plant response rating (rape; [3]) | Plant response rating, Soybean (soybean; [7]) | Soybean plant response rating (soybean; [4]) | Sugarbeets plant response rating (0 to 10 scale) (sugar beet; Preemergence, Rate 250 g/ha)
4: B. signalgrass plant response rating (surinam grass; [2]) | Plant response rating, Corn (corn; [7]) | Crabgrass plant response rating (crabgrass; [6]) | Morningglory plant response rating (morningglory; [1]) | Plant response rating, Rape (rape; [5])
7: Plant response rating, B. signalgrass (surinam grass; [7]) | B. signalgrass plant response rating (surinam grass; [3]) | B. signalgrass plant response rating (0 to 10 scale, 0 is no effect, 10 is complete control) (surinam grass; Preemergence, Rate 250 g/ha) | Morningglory plant response rating (morningglory; [6]) | Plant response rating, Rape (rape; [7]) | Rape plant response rating (0 to 10 scale) (rape; Preemergence, Rate 250 g/ha) | Sugarbeets plant response rating (sugar beet; [4]) | Wild oats plant response rating (wild oat; [4])
